# Reference: patent publication US12220440B2, “Drug composition, method for treating infection, disinfecting composition, and drug adjuvant” (priority 2022, dated 2025)
# Where two headings read alike, the source gives them in different places. Peptide text beside a SMILES is read from it.
# What was measured:
# [1] = system: E. coli (colistin-resistant); test: MIC, colistin-resistant E. coli clinical isolates, with and without otilonium bromide; format: cell-based; conditions: Escherichia coli
# [2] = system: mcr-1-bearing E. coli J53; test: microbe, parasite or virus in culture; format: cell-based; conditions: 20 μg/ml of otilonium bromide
# From the text: E. coli J53 strain carrying a natural mcr-1-bearing IncI2 plasmid (33 kb, KX711706.1) is used to screen and identify colistin adjuvants which could enhance the antibacterial activity of colistin.
smiles,measurement,setting,value
"CCC(C)CCCC(=O)N[C@@H](CCN)C(=O)N[C@H](C(=O)N[C@@H](CCN)C(=O)N[C@H]1CCNC(=O)[C@H]([C@@H](C)O)NC(=O)[C@H](CCN)NC(=O)[C@H](CCN)NC(=O)[C@H](CC(C)C)NC(=O)[C@@H](CC(C)C)NC(=O)[C@H](CCN)NC1=O)[C@@H](C)O (stereo partly drawn) [Colistin] (HELM PEPTIDE1{[CCC(C)CCCC(=O)[*:2]].[Dab].T.[Dab].[Dab].[Dab].[dL].L.[Dab].[Dab].T}$PEPTIDE1,PEPTIDE1,5:R3-11:R2$$$V2.0)",MIC,"[1]; E. coli 812, colistin-resistant, in the presence of 20 ug/ml Ob, read-out: Colistin MIC, Colistin + 20 ug/ml Ob",1 µg/mL
same,MIC,"[1]; E. coli 2016.2.5 1149-1, colistin-resistant, colistin alone, read-out: Colistin MIC, Colistin",8 µg/mL
same,MIC,"[1]; E. coli 2016.2.5 1149-1, colistin-resistant, in the presence of 10 ug/ml Ob, read-out: Colistin MIC, Colistin + 10 ug/ml Ob",4 µg/mL
same,MIC,"[1]; E. coli 2016.2.5 1149-1, colistin-resistant, in the presence of 20 ug/ml Ob, read-out: Colistin MIC, Colistin + 20 ug/ml Ob",1 µg/mL
same,MIC,"[1]; E. coli 34650, colistin-resistant, colistin alone, read-out: Colistin MIC, Colistin",8 µg/mL
same,MIC,"[1]; E. coli 34650, colistin-resistant, in the presence of 10 ug/ml Ob, read-out: Colistin MIC, Colistin + 10 ug/ml Ob",2 µg/mL
same,MIC,"[1]; E. coli 34650, colistin-resistant, in the presence of 20 ug/ml Ob, read-out: Colistin MIC, Colistin + 20 ug/ml Ob",0.5 µg/mL
same,MIC,"[1]; E. coli CX48, colistin-resistant, colistin alone, read-out: Colistin MIC, Colistin",8 µg/mL
same,MIC,"[1]; E. coli CX48, colistin-resistant, in the presence of 10 ug/ml Ob, read-out: Colistin MIC, Colistin + 10 ug/ml Ob",4 µg/mL
same,MIC,"[1]; E. coli CX48, colistin-resistant, in the presence of 20 ug/ml Ob, read-out: Colistin MIC, Colistin + 20 ug/ml Ob",1 µg/mL
same,MIC,"[1]; E. coli CX53, colistin-resistant, colistin alone, read-out: Colistin MIC, Colistin",8 µg/mL
same,MIC,"[1]; E. coli CX53, colistin-resistant, in the presence of 10 ug/ml Ob, read-out: Colistin MIC, Colistin + 10 ug/ml Ob",4 µg/mL
same,MIC,"[1]; E. coli CX53, colistin-resistant, in the presence of 20 ug/ml Ob, read-out: Colistin MIC, Colistin + 20 ug/ml Ob",2 µg/mL
same,MIC,"[1]; E. coli CX116, colistin-resistant, colistin alone, read-out: Colistin MIC, Colistin",2 µg/mL
same,MIC,"[1]; E. coli CX116, colistin-resistant, in the presence of 10 ug/ml Ob, read-out: Colistin MIC, Colistin + 10 ug/ml Ob",≤ 0.25 µg/mL
same,MIC,"[1]; E. coli CX116, colistin-resistant, in the presence of 20 ug/ml Ob, read-out: Colistin MIC, Colistin + 20 ug/ml Ob",≤ 0.25 µg/mL
same,MIC,"[1]; E. coli WZ2431, colistin-resistant, colistin alone, read-out: Colistin MIC, Colistin",8 µg/mL
same,MIC,"[1]; E. coli WZ2431, colistin-resistant, in the presence of 10 ug/ml Ob, read-out: Colistin MIC, Colistin + 10 ug/ml Ob",2 µg/mL
same,MIC,"[1]; E. coli WZ2431, colistin-resistant, in the presence of 20 ug/ml Ob, read-out: Colistin MIC, Colistin + 20 ug/ml Ob",0.5 µg/mL
same,MIC,"[1]; E. coli WZ2909, colistin-resistant, colistin alone, read-out: Colistin MIC, Colistin",16 µg/mL
same,MIC,"[1]; E. coli WZ2909, colistin-resistant, in the presence of 10 ug/ml Ob, read-out: Colistin MIC, Colistin + 10 ug/ml Ob",8 µg/mL
same,MIC,"[1]; E. coli WZ2909, colistin-resistant, in the presence of 20 ug/ml Ob, read-out: Colistin MIC, Colistin + 20 ug/ml Ob",1 µg/mL
same,MIC,"[1]; E. coli WZ3903, colistin-resistant, colistin alone, read-out: Colistin MIC, Colistin",4 µg/mL
same,MIC,"[1]; E. coli WZ3903, colistin-resistant, in the presence of 10 ug/ml Ob, read-out: Colistin MIC, Colistin + 10 ug/ml Ob",≤ 0.25 µg/mL
same,MIC,"[1]; E. coli WZ3903, colistin-resistant, in the presence of 20 ug/ml Ob, read-out: Colistin MIC, Colistin + 20 ug/ml Ob",≤ 0.25 µg/mL
same,MIC,"[1]; E. coli WZ3906, colistin-resistant, colistin alone, read-out: Colistin MIC, Colistin",8 µg/mL
same,MIC,"[1]; E. coli WZ3906, colistin-resistant, in the presence of 10 ug/ml Ob, read-out: Colistin MIC, Colistin + 10 ug/ml Ob",4 µg/mL
same,MIC,"[1]; E. coli WZ3906, colistin-resistant, in the presence of 20 ug/ml Ob, read-out: Colistin MIC, Colistin + 20 ug/ml Ob",1 µg/mL
same,MIC,"[1]; E. coli WZ3920, colistin-resistant, colistin alone, read-out: Colistin MIC, Colistin",4 µg/mL
same,MIC,"[1]; E. coli WZ3920, colistin-resistant, in the presence of 10 ug/ml Ob, read-out: Colistin MIC, Colistin + 10 ug/ml Ob",2 µg/mL
same,MIC,"[1]; E. coli WZ3920, colistin-resistant, in the presence of 20 ug/ml Ob, read-out: Colistin MIC, Colistin + 20 ug/ml Ob",≤ 0.25 µg/mL
same,MIC,"[1]; E. coli WZ3951, colistin-resistant, colistin alone, read-out: Colistin MIC, Colistin",16 µg/mL
same,MIC,"[1]; E. coli WZ3951, colistin-resistant, in the presence of 10 ug/ml Ob, read-out: Colistin MIC, Colistin + 10 ug/ml Ob",8 µg/mL
same,MIC,"[1]; E. coli WZ3951, colistin-resistant, in the presence of 20 ug/ml Ob, read-out: Colistin MIC, Colistin + 20 ug/ml Ob",2 µg/mL
same,MIC,"[1]; E. coli WZ3955, colistin-resistant, colistin alone, read-out: Colistin MIC, Colistin",8 µg/mL
same,MIC,"[1]; E. coli WZ3955, colistin-resistant, in the presence of 10 ug/ml Ob, read-out: Colistin MIC, Colistin + 10 ug/ml Ob",4 µg/mL
same,MIC,"[1]; E. coli WZ3955, colistin-resistant, in the presence of 20 ug/ml Ob, read-out: Colistin MIC, Colistin + 20 ug/ml Ob",1 µg/mL
same,MIC,"[1]; E. coli X2169, colistin-resistant, colistin alone, read-out: Colistin MIC, Colistin",16 µg/mL
same,MIC,"[1]; E. coli X2169, colistin-resistant, in the presence of 10 ug/ml Ob, read-out: Colistin MIC, Colistin + 10 ug/ml Ob",4 µg/mL
same,MIC,"[1]; E. coli X2169, colistin-resistant, in the presence of 20 ug/ml Ob, read-out: Colistin MIC, Colistin + 20 ug/ml Ob",2 µg/mL
same,MIC,"[2]; Escherichia coli, read-out: colistin MIC (minimum inhibitory concentration), mcr-1-bearing E. coli J53",0.28 µg/mL
same,reduction in colistin MIC,[2]; mcr-1-bearing E. coli J53,32 fold
